Counter-ions that a name gives are not always drawn.
Biological target: T1, recombinant human CXCR2 (Homo sapiens, UniProt P25025)
T1 construct: TEV protease site; Gal4-VP16 transcription factor
T1 sequence (P25025 1-360): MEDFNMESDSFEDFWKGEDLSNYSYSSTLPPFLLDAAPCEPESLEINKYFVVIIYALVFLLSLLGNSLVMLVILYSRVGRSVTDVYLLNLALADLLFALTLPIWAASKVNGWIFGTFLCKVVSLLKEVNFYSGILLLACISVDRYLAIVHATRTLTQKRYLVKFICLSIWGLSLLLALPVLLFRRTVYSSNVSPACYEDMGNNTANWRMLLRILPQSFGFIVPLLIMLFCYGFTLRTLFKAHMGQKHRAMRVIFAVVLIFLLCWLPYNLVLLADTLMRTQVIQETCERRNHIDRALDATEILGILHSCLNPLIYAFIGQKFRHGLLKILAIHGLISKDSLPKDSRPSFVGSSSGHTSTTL
Assay: CXCR2 Tango assay
Assay type: cell-based
Settings: mean pIC50 of multiple test results; stimulated with 80 nM hCXCL1; reporter gene blue/green emission ratio; read-out: pIC50 (CXCR2 Tango assay) (converted)
Outline: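 A stable cell line carries human CXCR2 fused to a TEV site and Gal4-VP16, with protease-tagged arrestin. Cells (~10,000/well) were stimulated overnight at 37 °C with 80 nM hCXCL1 and a 10-point compound dilution. CCF4-AM beta-lactamase FRET (460/530 nm ratio) was read, normalized to hCXCL1 and DMSO, and mean pIC50 reported.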

SMILES	IC50 [nM]
CC(c1ncccn1)S(=O)(=O)c1c(Cl)ccc(NC(=O)NC2CCC=C2Cl)c1O (centres unmarked) [Compound 30, 1-(4-chloro-2-hydroxy-3-((1-(pyrimidin-2-yl)ethyl)sulfonyl)phenyl)-3-(2-chlorocyclopent-2-en-1-yl)urea]	≤ 10
CC1=C(Cl)CCC1NC(=O)Nc1ccc(Cl)c(S(=O)(=O)C(C)C)c1O (centres unmarked) [Compound 16, 1-(4-chloro-2-hydroxy-3-(isopropylsulfonyl)phenyl)-3-(3-chloro-2-methylcyclopent-2-en-1-yl)urea]	≤ 10
CC(C)(c1ccccn1)S(=O)(=O)c1c(Cl)ccc(NC(=O)NC2CCC=C2Cl)c1O (centres unmarked) [Compound 4, 1-(4-chloro-2-hydroxy-3-((2-(pyridin-2-yl)propan-2-yl)sulfonyl)phenyl)-3-(2-chlorocyclopent-2-en-1-yl)urea, trifluoroacetic acid salt]	≤ 10
CC1=CCC[C@H]1NC(=O)Nc1ccc(Cl)c(S(=O)(=O)[C@H]2C[C@H](F)C2)c1O [Compound 50, 1-(4-chloro-3-((trans-3-fluorocyclobutyl)sulfonyl)-2-hydroxyphenyl)-3-((R)-2-methylcyclopent-2-en-1-yl)urea]	≤ 1
CC1=CCCC1NC(=O)Nc1ccc(Cl)c(S(=O)(=O)C(C)c2ccccn2)c1O (centres unmarked) [Compound 25, 1-(4-chloro-2-hydroxy-3-((1-(pyridin-2-yl)ethyl)sulfonyl)phenyl)-3-(2-methylcyclopent-2-en-1-yl)urea, trifluoroacetic acid salt]	≤ 10
COC1CCCCC1S(=O)(=O)c1c(Cl)ccc(NC(=O)NC2CCC=C2C)c1O (racemic) [Compound 150, (±)trans-1-(4-chloro-2-hydroxy-3-((2-methoxycyclohex-yl)sulfonyl)phenyl)-3-((R)-2-methylcyclopent-2-en-1-yl)urea]	≤ 10
CC1=CCCC1NC(=O)Nc1ccc(Cl)c(S(=O)(=O)C(C)(C)C)c1O (centres unmarked) [Compound 100, 1-(3-(tert-butylsulfonyl)-4-chloro-2-hydroxyphenyl)-3-(2-methylcyclopent-2-en-1-yl)urea]	≤ 10
CC1=CCCC1NC(=O)Nc1ccc(Cl)c(S(=O)(=O)C2CCN3CCCC3C2)c1O (centres unmarked) [Compound 109, 1-(4-chloro-2-hydroxy-3-((octahydroindolizin-7-yl)sulfonyl)phenyl)-3-(2-methylcyclopent-2-en-1-yl)urea, trifluoroacetic acid salt]	≤ 10
O=C(Nc1ccc(Cl)c(S(=O)(=O)[C@H]2C[C@@H](O)C2)c1O)N[C@@H]1CCC=C1Cl [Compound 162, 1-(4-chloro-2-hydroxy-3-((cis-3-hydroxycyclobutyl)sulfonyl)phenyl)-3-((R)-2-chlorocyclopent-2-en-1-yl)urea]	≤ 1
CC1=CCC[C@H]1NC(=O)Nc1ccc(Cl)c(S(=O)(=O)C(C)CO)c1O (stereo partly drawn) [Compound 34, 1-(4-chloro-2-hydroxy-3-((1-hydroxypropan-2-yl)sulfonyl)phenyl)-3-((R)-2-methylcyclopent-2-en-1-yl)urea]	≤ 10
CC(C)S(=O)(=O)c1c(Cl)ccc(NC(=O)NC2C=CCC2)c1O (centres unmarked) [Compound 18, 1-(4-chloro-2-hydroxy-3-(isopropylsulfonyl)phenyl)-3-(cyclopent-2-en-1-yl)urea]	≤ 10
CC1=CCC[C@H]1NC(=O)Nc1ccc(Cl)c(S(=O)(=O)C2CC[C@@H](N(C)C)C2)c1O (stereo partly drawn) [Compound 127, cis-1-(4-chloro-3-((3-(dimethylamino)cyclopentyl)sulfonyl)-2-hydroxyphenyl)-3-((R)-2-methylcyclopent-2-en-1-yl)urea]	≤ 1
O=C(Nc1ccc(Cl)c(S(=O)(=O)[C@H]2CC[C@H](N3CCC3)CC2)c1O)NC1CCC=C1Cl (stereo partly drawn) [Compound 178, 1-(3-((trans-4-(azetidin-1-yl)cyclohexyl)sul-fonyl)-4-chloro-2-hydroxyphenyl)-3-(2-chlorocyclopent-2-en-1-yl)urea, trifluoroacetic acid salt]	≤ 10
CC(C)S(=O)(=O)c1c(Cl)ccc(NC(=O)NC2CCC=C2F)c1O (centres unmarked) [Compound 22, 1-(4-chloro-2-hydroxy-3-(isopropylsulfonyl)phenyl)-3-(2-fluorocyclopent-2-en-1-yl)urea]	≤ 10
